Laboratory results reported in PubChem BioAssay (NCI).
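Following 48 hours of exposure in 96-well plates, responses at five concentrations were used to interpolate endpoints linearly. GI50: concentration for 50% inhibition of growth. TGI: concentration producing complete growth inhibition.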

Key:
Assay in all cases: DTP human tumour cell line panel, 48 h
UACC-257 melanoma = test system: UACC-257 melanoma
HCT-116 colon = test system: HCT-116 colon
TK-10 renal = test system: TK-10 renal
SF-539 CNS = test system: SF-539 CNS
SK-MEL-2 melanoma = test system: SK-MEL-2 melanoma
CAKI-1 renal = test system: CAKI-1 renal
IGROV1 ovarian = test system: IGROV1 ovarian
HCT-15 colon = test system: HCT-15 colon
CCRF-CEM leukemia = test system: CCRF-CEM leukemia
M14 melanoma = test system: M14 melanoma
SNB-19 CNS = test system: SNB-19 CNS
786-0 renal = test system: 786-0 renal
HOP-92 NSCLC = test system: HOP-92 NSCLC
NCI-H522 lung = test system: NCI-H522 lung
SK-OV-3 ovarian = test system: SK-OV-3 ovarian
NCI-H460 lung = test system: NCI-H460 lung
OVCAR-5 ovarian = test system: OVCAR-5 ovarian
BT-549 breast = test system: BT-549 breast
A498 renal = test system: A498 renal
MALME-3M melanoma = test system: MALME-3M melanoma
HT29 colon = test system: HT29 colon
NCI-H226 lung = test system: NCI-H226 lung
SK-MEL-5 melanoma = test system: SK-MEL-5 melanoma
RPMI-8226 leukemia = test system: RPMI-8226 leukemia
SK-MEL-28 melanoma = test system: SK-MEL-28 melanoma
UO-31 renal = test system: UO-31 renal
COLO 205 colon = test system: COLO 205 colon
K-562 leukemia = test system: K-562 leukemia
HS 578T breast = test system: HS 578T breast
DU-145 prostate = test system: DU-145 prostate
U251 CNS = test system: U251 CNS
SF-295 CNS = test system: SF-295 CNS
SN12C renal = test system: SN12C renal
NCI/ADR-RES ovarian = test system: NCI/ADR-RES ovarian
OVCAR-4 ovarian = test system: OVCAR-4 ovarian
OVCAR-3 ovarian = test system: OVCAR-3 ovarian
NCI-H23 lung = test system: NCI-H23 lung
LOX IMVI melanoma = test system: LOX IMVI melanoma
MOLT-4 leukemia = test system: MOLT-4 leukemia
HOP-62 NSCLC = test system: HOP-62 NSCLC
OVCAR-8 ovarian = test system: OVCAR-8 ovarian
SNB-75 CNS = test system: SNB-75 CNS
ACHN renal = test system: ACHN renal
UACC-62 melanoma = test system: UACC-62 melanoma
EKVX NSCLC = test system: EKVX NSCLC
HL-60(TB) leukemia = test system: HL-60(TB) leukemia
MDA-MB-231 breast = test system: MDA-MB-231 breast
HCC-2998 colon = test system: HCC-2998 colon
PC-3 prostate = test system: PC-3 prostate
MDA-MB-435 = test system: MDA-MB-435
SW-620 colon = test system: SW-620 colon
SR leukemia = test system: SR leukemia
RXF 393 renal = test system: RXF 393 renal

`COc1cccc2c1C(=O)c1c(O)c3c(c(O)c1C2=O)C[C@](O)(C(=O)CO)C[C@H]3O[C@@H]1C[C@@H](NC(=O)CCCN(C)C2(c3ccc(F)cc3)CC3CCC2C3)[C@H](O)[C@@H](C)O1` (stereo partly specified) gave a GI50 (UACC-257 melanoma) of 0.984 µM, a TGI (UACC-257 melanoma) of 1.73 µM and a GI50 (HCT-116 colon) of 0.742 µM. It also gave a TGI (HCT-116 colon) of 1.47 µM, a GI50 (TK-10 renal) of 0.78 µM and a TGI (TK-10 renal) of 1.64 µM. The GI50 (SF-539 CNS) was 0.846 µM, the TGI (SF-539 CNS) was 1.56 µM and the GI50 (SK-MEL-2 melanoma) was 1.06 µM. It also gave a TGI (SK-MEL-2 melanoma) of 2.15 µM, a GI50 (CAKI-1 renal) of 7.16 µM and a TGI (CAKI-1 renal) of 14.5 µM. For the same molecule, the GI50 (IGROV1 ovarian) was 5.72 µM, the TGI (IGROV1 ovarian) was 15.8 µM and the GI50 (HCT-15 colon) was 0.971 µM. It also gave a TGI (HCT-15 colon) of 2.25 µM, a GI50 (CCRF-CEM leukemia) of 0.927 µM and a TGI (CCRF-CEM leukemia) of 3.29 µM. The GI50 (M14 melanoma) was 0.925 µM, the TGI (M14 melanoma) was 1.73 µM and the GI50 (SNB-19 CNS) was 0.9 µM. It also gave a TGI (SNB-19 CNS) of 2.19 µM, a GI50 (786-0 renal) of 0.801 µM and a TGI (786-0 renal) of 1.57 µM. The GI50 (HOP-92 NSCLC) was 3.62 µM, the TGI (HOP-92 NSCLC) was 11.1 µM and the GI50 (NCI-H522 lung) was 0.827 µM. The TGI (NCI-H522 lung) was 1.61 µM, the GI50 (SK-OV-3 ovarian) was 7.59 µM and the TGI (SK-OV-3 ovarian) was 16.4 µM. It also gave a GI50 (NCI-H460 lung) of 0.545 µM, a TGI (NCI-H460 lung) of 1.22 µM and a GI50 (OVCAR-5 ovarian) of 0.863 µM. For the same molecule, the TGI (OVCAR-5 ovarian) was 1.67 µM, the GI50 (BT-549 breast) was 5.07 µM and the TGI (BT-549 breast) was 13.7 µM. For the same molecule, the GI50 (A498 renal) was 5.31 µM, the TGI (A498 renal) was 12.5 µM and the GI50 (MALME-3M melanoma) was 0.914 µM. The TGI (MALME-3M melanoma) was 1.76 µM, the GI50 (HT29 colon) was 0.881 µM and the TGI (HT29 colon) was 1.92 µM. The GI50 (NCI-H226 lung) was 3.53 µM, the TGI (NCI-H226 lung) was 15.7 µM and the GI50 (SK-MEL-5 melanoma) was 0.859 µM. For the same molecule, the TGI (SK-MEL-5 melanoma) was 1.57 µM, the GI50 (RPMI-8226 leukemia) was 0.946 µM and the TGI (RPMI-8226 leukemia) was 2.23 µM. It also gave a GI50 (SK-MEL-28 melanoma) of 0.946 µM, a TGI (SK-MEL-28 melanoma) of 1.72 µM and a GI50 (UO-31 renal) of 6.23 µM. It also gave a TGI (UO-31 renal) of 14.5 µM, a GI50 (COLO 205 colon) of 0.712 µM and a TGI (COLO 205 colon) of 1.44 µM. The GI50 (K-562 leukemia) was 1.02 µM, the TGI (K-562 leukemia) was 2.58 µM and the GI50 (HS 578T breast) was 6.78 µM. The TGI (HS 578T breast) was 20.9 µM, the GI50 (DU-145 prostate) was 0.893 µM and the TGI (DU-145 prostate) was 1.89 µM. The GI50 (U251 CNS) was 0.793 µM, the TGI (U251 CNS) was 1.52 µM and the GI50 (SF-295 CNS) was 0.805 µM. For the same molecule, the TGI (SF-295 CNS) was 1.6 µM, the GI50 (SN12C renal) was 5.13 µM and the TGI (SN12C renal) was 14 µM. The GI50 (NCI/ADR-RES ovarian) was 8.47 µM, the TGI (NCI/ADR-RES ovarian) was 50 µM and the GI50 (OVCAR-4 ovarian) was 0.844 µM. The TGI (OVCAR-4 ovarian) was 1.61 µM, the GI50 (OVCAR-3 ovarian) was 0.852 µM and the TGI (OVCAR-3 ovarian) was 1.71 µM. For the same molecule, the GI50 (NCI-H23 lung) was 0.829 µM, the TGI (NCI-H23 lung) was 1.71 µM and the GI50 (LOX IMVI melanoma) was 0.734 µM. For the same molecule, the TGI (LOX IMVI melanoma) was 1.45 µM, the GI50 (MOLT-4 leukemia) was 0.382 µM and the TGI (MOLT-4 leukemia) was 1.9 µM. The GI50 (HOP-62 NSCLC) was 2.26 µM, the TGI (HOP-62 NSCLC) was 10.6 µM and the GI50 (OVCAR-8 ovarian) was 0.913 µM. The TGI (OVCAR-8 ovarian) was 2.36 µM, the GI50 (SNB-75 CNS) was 1.09 µM and the TGI (SNB-75 CNS) was 9.89 µM. For the same molecule, the GI50 (ACHN renal) was 0.736 µM, the TGI (ACHN renal) was 1.4 µM and the GI50 (UACC-62 melanoma) was 0.889 µM. It also gave a TGI (UACC-62 melanoma) of 1.92 µM, a GI50 (EKVX NSCLC) of 0.917 µM and a TGI (EKVX NSCLC) of 2.01 µM. The GI50 (HL-60(TB) leukemia) was 1.17 µM, the TGI (HL-60(TB) leukemia) was 3.01 µM and the GI50 (MDA-MB-231 breast) was 0.771 µM. For the same molecule, the TGI (MDA-MB-231 breast) was 1.54 µM, the GI50 (HCC-2998 colon) was 0.826 µM and the TGI (HCC-2998 colon) was 1.55 µM. For the same molecule, the GI50 (PC-3 prostate) was 1.18 µM, the TGI (PC-3 prostate) was 3.11 µM and the GI50 (MDA-MB-435) was 0.836 µM. It also gave a TGI (MDA-MB-435) of 1.61 µM, a GI50 (SW-620 colon) of 0.641 µM and a TGI (SW-620 colon) of 1.49 µM. The GI50 (SR leukemia) was 0.311 µM, the TGI (SR leukemia) was 1.52 µM and the GI50 (RXF 393 renal) was 0.696 µM. It also gave a TGI (RXF 393 renal) of 1.41 µM.
